Reference: US20050004163A1, “3-(diarylmethylene)-8-azabicyclo[3.2.1]octane derivatives” (priority 2000, published 2005)
Read-outs that look alike come from different tables or passages of the source.

Target: T1, μ-opioid receptor (Rattus norvegicus, UniProt P33535)
T1 construct: the forebrains are homogenized in Tris buffer in a Teflon®-glass homogenizer; from tissue; host or cells: forebrain of male Wistar rats (particulate membrane preparation)
Assay: Rat brain μ-opioid receptor binding assay ([3H]DAMGO)
Method: Rat Brain μ-Opioid Receptor Binding Assay
Male, Wistar rats (150-250 g, VAF, Charles River, Kingston, N.Y.) are killed by cervical dislocation and their brains removed and placed immediately in ice cold Tris HCl buffer (50 mM, pH 7.4). The forebrains are separated from the remainder of the brain by a coronal transection, beginning dorsally at the colliculi and passing ventrally through the midbrain-pontine junction. After dissection, the forebrains are homogenized in Tris buffer in a Teflon®-glass homogenizer. The homogenate is diluted to a concentration of 1 g of forebrain tissue per 100 mL Tris buffer and centrifuged at 39,000×G for 10 min. The pellet is resuspended in the same volume of Tris buffer with several brief pulses from a Polytron homogenizer. This particulate preparation is used for the μ-opioid binding assays. […] The tubes and filters are rinsed three times with 4 mL of 10 mM HEPES (pH 7.4) and the radioactivity associated with the filter circles determined using Formula 989 scintillation fluid (New England Nuclear, Boston, Mass.) in a scintillation counter.
The data are used to calculate either the % inhibition compared to control binding (when only a single concentration of test compound is evaluated) or a Ki value (when a range of concentrations is tested).
% Inhibition is calculated as follows: [formula]
Ki value is calculated using the LIGAND (Munson, P. J. and Rodbard, D., Anal. Biochem. 107: 220-239, 1980) data analysis program.

[1] = 10 nM solutions of the compounds, read-out: MOR binding Ki

T1 sequence (P33535 whole entry): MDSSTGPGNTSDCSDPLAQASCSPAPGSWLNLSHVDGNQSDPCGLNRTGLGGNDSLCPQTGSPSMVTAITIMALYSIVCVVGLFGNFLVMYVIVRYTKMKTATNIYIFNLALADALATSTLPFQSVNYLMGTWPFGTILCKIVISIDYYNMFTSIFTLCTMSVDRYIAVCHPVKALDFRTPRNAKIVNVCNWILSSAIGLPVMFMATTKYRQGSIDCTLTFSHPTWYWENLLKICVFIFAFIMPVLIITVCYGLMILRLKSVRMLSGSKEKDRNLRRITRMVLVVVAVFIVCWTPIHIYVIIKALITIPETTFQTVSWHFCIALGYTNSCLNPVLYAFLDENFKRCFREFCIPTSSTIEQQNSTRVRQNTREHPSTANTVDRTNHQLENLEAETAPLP

CCNC(=O)c1ccc(C=C2CC3CCC(C2)N3CC=C(C)C)cc1 [Cpd 55]
Ki (MOR binding Ki): 0.195 µM

CCNC(=O)c1ccc(C=C2CC3CCC(C2)N3Cc2ccccn2)cc1 [Cpd 56]
Ki (MOR binding Ki): 1.5 µM

CCNC(=O)c1ccc(C=C2CC3CCC(C2)N3Cc2cccnc2)cc1 [Cpd 57]
Ki (MOR binding Ki): 1.41 µM

CCNC(=O)c1ccc(C=C2CC3CCC(C2)N3Cc2ccncc2)cc1 [Cpd 58]
Ki [1]: 1.18 µM

CCNC(=O)c1ccc(C=C2CC3CCC(C2)N3CC#Cc2ccccc2)cc1 [Cpd 59]
Ki (MOR binding Ki): 0.0316 µM

CCNC(=O)c1ccc(C=C2CC3CCC(C2)N3Cc2cccs2)cc1 [Cpd 61]
Ki [1]: 0.0712 µM

CCNC(=O)c1ccc(C=C2CC3CCC(C2)N3CCc2ccccc2)cc1 [Cpd 62]
Ki [1]: 0.00856 µM

CCNC(=O)c1ccc(C(=C2CC3CCC(C2)N3Cc2cccs2)c2cnc3ccccc3c2)cc1 [Cpd 64]
Ki (MOR binding Ki): 0.0308 µM

CCNC(=O)c1ccc(C(=C2CC3CCC(C2)N3Cc2ccc3c(c2)OCO3)c2cnc3ccccc3c2)cc1 [Cpd 65]
Ki (MOR binding Ki): 0.0426 µM

CCNC(=O)c1ccc(C(=C2CC3CCC(C2)N3Cc2ccccn2)c2cnc3ccccc3c2)cc1 [Cpd 66]
Ki (MOR binding Ki): 0.142 µM

CCNC(=O)c1ccc(C(=C2CC3CCC(C2)N3CC=C(C)C)c2cccc3cccnc23)cc1 [Cpd 67]
Ki (MOR binding Ki): 0.119 µM

CCNC(=O)c1ccc(C(=C2CC3CCC(C2)N3Cc2cccs2)c2cccc3cccnc23)cc1 [Cpd 68]
Ki (MOR binding Ki): 0.155 µM

CCNC(=O)c1ccc(C(=C2CC3CCC(C2)N3Cc2ccc3c(c2)OCO3)c2cccc3cccnc23)cc1 [Cpd 69]
Ki (MOR binding Ki): 0.133 µM

CCNC(=O)c1ccc(C(=C2CC3CCC(C2)N3Cc2ccccn2)c2cccc3cccnc23)cc1 [Cpd 70]
Ki (MOR binding Ki): 0.0411 µM

CCNC(=O)c1ccc(C(=C2CC3CCC(C2)N3Cc2ccc3ccccc3n2)c2cccnc2)cc1 [Cpd 71]
Ki (MOR binding Ki): 0.0146 µM

CCNC(=O)c1ccc(C(=C2CC3CCC(C2)N3Cc2ccc3ccccc3n2)c2cccc(NC(C)=O)c2)cc1 [Cpd 72]
Ki (MOR binding Ki): 0.0111 µM

CCNC(=O)c1ccc(C(=C2CC3CCC(C2)N3Cc2ccc3ccccc3n2)c2cccc(C(C)=O)c2)cc1 [Cpd 73]
Ki (MOR binding Ki): 0.0359 µM

CCNC(=O)c1ccc(C(=C2CC3CCC(C2)N3Cc2csc([N+](=O)[O-])c2)c2cccnc2)cc1 [Cpd 74]
Ki (MOR binding Ki): 0.0375 µM

CCNC(=O)c1ccc(C(=C2CC3CCC(C2)N3Cc2csc([N+](=O)[O-])c2)c2cccc(C(C)=O)c2)cc1 [Cpd 76]
Ki (MOR binding Ki): 0.184 µM

CCNC(=O)c1ccc(C=C2CC3CCC(C2)N3Cc2ccc(Cl)s2)cc1 [Cpd 77]
Ki [1]: 0.356 µM

CCNC(=O)c1ccc(C=C2CC3CCC(C2)N3Cc2sc3ccccc3c2C)cc1 [Cpd 78]
Ki [1]: 0.271 µM

CCNC(=O)c1ccc(C(=C2CC3CCC(C2)N3Cc2ccco2)c2cccc(C(=O)O)c2)cc1 [Cpd 80, 3-[(4-Ethylcarbamoyl-phenyl)-(8-furan-2-ylmethyl-8-aza-bicyclo[3.2.1]oct-3-ylidene)-methyl]-benzoic acid]
Ki (MOR binding Ki): 0.119 µM

CCNC(=O)c1ccc(C(=C2CC3CCC(C2)N3Cc2ccccn2)c2cccc(C(=O)O)c2)cc1 [Cpd 82]
Ki (MOR binding Ki): 0.375 µM

CCNC(=O)c1ccc(C(=C2CC3CCC(C2)N3CCc2ccccc2)c2cccc(C(=O)O)c2)cc1 [Cpd 83]
Ki (MOR binding Ki): 0.0172 µM

CCNC(=O)c1ccc(C(=C2CC3CCC(C2)N3Cc2ccc(NC(C)=O)cc2)c2cccc(C(=O)O)c2)cc1 [Cpd 84]
Ki (MOR binding Ki): 5.66 µM

CCNC(=O)c1ccc(C(=C2CC3CCC(C2)N3Cc2ccc3ccccc3n2)c2cccc(C(=O)O)c2)cc1 [Cpd 85]
Ki (MOR binding Ki): 0.537 µM

CCNC(=O)c1ccc(C=C2CC3CCC(C2)N3CCc2ccccc2O)cc1 [Cpd 86]
Ki [1]: 0.0193 µM

CCNC(=O)c1ccc(C(=C2CC3CCC(C2)N3Cc2ccc(C(=O)O)o2)c2cccc(C(=O)O)c2)cc1 [Cpd 87]
Ki [1]: 0.815 µM

CCN(CC)C(=O)c1ccc(C(Br)=C2CC3CCC(C2)N3CCc2ccccc2)cc1 [Cpd 89, 4-[Bromo-(8-phenethyl-8-azabicyclo[3.2.1]oct-3-ylidene)-methyl]-N,N-diethylbenzamide]
Ki (MOR binding Ki): 1.01 µM

CCNC(=O)c1ccc(C(=C2CC3CCC(C2)N3Cc2nnn[nH]2)c2ccccc2)cc1 [Cpd 90, N-Ethyl-4-{phenyl-[8-(1H-tetrazol-5-ylmethyl)-8-aza-bicyclo[3.2.1]oct-3-ylidene]-methyl}-benzamide]
Ki (MOR binding Ki): 0.406 µM

CCNC(=O)c1ccc(C(=C2CC3CCC(C2)N3CCN2CCN(C(=O)OC)CC2)c2ccccc2)cc1 [Cpd 91, 4-(2-{3-[(4-Ethylcarbamoylphenyl)-phenylmethylene]-8-azabicyclo[3.2.1]oct-8-yl}-ethyl)piperazine-1-carboxylic acid methyl ester]
Ki (MOR binding Ki): 0.175 µM

CCNC(=O)c1ccc(C(=C2CC3CCC(C2)N3Cc2cccc(C(=O)O)c2)c2ccccc2)cc1 [Cpd 93]
Ki (MOR binding Ki): 0.28 µM

CCNC(=O)c1ccc(C(=C2CC3CCC(C2)N3Cc2ccc(C(=O)O)cc2)c2ccccc2)cc1 [Cpd 94]
Ki (MOR binding Ki): 0.322 µM

CCNC(=O)c1ccc(C(=C2CC3CCC(C2)N3Cc2ccc(C(=O)O)o2)c2ccccc2)cc1 [Cpd 95]
Ki [1]: 0.421 µM

CCNC(=O)c1ccc(C(=C2CC3CCC(C2)N3Cc2ccco2)c2ccc(C(=O)O)cc2)cc1 [Cpd 96]
Ki [1]: 0.0635 µM

CCNC(=O)c1ccc(C(=C2CC3CCC(C2)N3Cc2ccoc2)c2ccc(C(=O)O)cc2)cc1 [Cpd 97]
Ki (MOR binding Ki): 0.0119 µM

CCNC(=O)c1ccc(C(=C2CC3CCC(C2)N3Cc2ccccn2)c2ccc(C(=O)O)cc2)cc1 [Cpd 98]
Ki (MOR binding Ki): 0.203 µM

CCNC(=O)c1ccc(C(=C2CC3CCC(C2)N3CCc2ccccc2)c2ccc(C(=O)O)cc2)cc1 [Cpd 99]
Ki (MOR binding Ki): 5.29 µM

CCNC(=O)c1ccc(C(=C2CC3CCC(C2)N3Cc2ccc3ccccc3n2)c2ccc(C(=O)O)cc2)cc1 [Cpd 100]
Ki (MOR binding Ki): 0.147 µM

CCNC(=O)c1ccc(C(=C2CC3CCC(C2)N3Cc2ccc3ccccc3n2)c2cncnc2)cc1 [Cpd 101]
Ki (MOR binding Ki): 0.113 µM

CCNC(=O)c1ccc(C(=C2CC3CCC(C2)N3Cc2nccs2)c2cccc(C(=O)O)c2)cc1 [Cpd 102]
Ki (MOR binding Ki): 1.32 µM

CNC(=O)c1ccc(C=C2CC3CCC(C2)N3CC2CC2)cc1 [Cpd 105]
Ki (MOR binding Ki): 5.62 µM

CCNC(=O)c1ccc(C=C2CC3CCC(C2)N3CCC(C#N)(c2ccccc2)c2ccccc2)cc1 [Cpd 106, 4-[8-(3-Cyano-3,3-diphenylpropyl)-8-aza-bicyclo[3.2.1]oct-3-ylidenemethyl]-N-ethyl-benzamide]
Ki (MOR binding Ki): 0.0536 µM

CCNC(=O)c1ccc(C(=C2CC3CCC(C2)N3Cc2ccco2)c2cc(N)cc(C(=O)O)c2)cc1 [Cpd 108]
Ki (MOR binding Ki): 10 µM

CCNC(=O)c1ccc(C(=C2CC3CCC(C2)N3Cc2ccoc2)c2cc(N)cc(C(=O)O)c2)cc1 [Cpd 110]
Ki (MOR binding Ki): 9.14 µM

CCNC(=O)c1ccc(C(=C2CC3CCC(C2)N3Cc2ccccn2)c2cc(N)cc(C(=O)O)c2)cc1 [Cpd 112]
Ki (MOR binding Ki): 10 µM

CCNC(=O)c1ccc(/C(=C2\C[C@H]3CC[C@@H](C2)N3Cc2ccccn2)c2ccc(C(=O)N(C)C)cc2)cc1 [Cpd 113, N-Ethyl-4-[N′,N′-dimethylbenzamide-(8-pyridin-2-ylmethyl-8-aza-bicyclo[3.2.1]oct-3-ylidene)-methyl]-benzamide]
Ki (MOR binding Ki): 0.0367 µM

CCNC(=O)c1ccc(C(=C2CC3CCC(C2)N3CC=C(C)C)c2cc(N)cc(C(=O)O)c2)cc1 [Cpd 114]
Ki (MOR binding Ki): 4.83 µM

CCNC(=O)c1ccc(C(=C2CC3CCC(C2)N3CCc2ccccc2)c2cc(N)cc(C(=O)O)c2)cc1 [Cpd 116]
Ki (MOR binding Ki): 1.51 µM

CCNC(=O)c1ccc(C(=C2CC3CCC(C2)N3Cc2nccs2)c2cc(N)cc(C(=O)O)c2)cc1 [Cpd 118]
Ki (MOR binding Ki): 10 µM

CCNC(=O)c1ccc(C(=C2CC3CCC(C2)N3Cc2cccs2)c2cc(N)cc(C(=O)O)c2)cc1 [Cpd 120]
Ki (MOR binding Ki): 5.36 µM

CCNC(=O)c1ccc(C(=C2CC3CCC(C2)N3Cc2ccco2)c2ccc([N+](=O)[O-])cc2)cc1 [Cpd 123]
Ki [1]: 0.0342 µM

CCNC(=O)c1ccc(C(=C2CC3CCC(C2)N3Cc2ccco2)c2ccc(CC(N)C(=O)O)cc2)cc1 (stereo not shown) [Cpd 124]
Ki (MOR binding Ki): 0.0946 µM

CCNC(=O)c1ccc(C(=C2CC3CCC(C2)N3Cc2ccco2)c2ccc(CCC(=O)O)cc2)cc1 [Cpd 125]
Ki (MOR binding Ki): 0.0476 µM

CCNC(=O)c1ccc(C(=C2CC3CCC(C2)N3Cc2ccoc2)c2ccc([N+](=O)[O-])cc2)cc1 [Cpd 126]
Ki [1]: 0.00145 µM

CCNC(=O)c1ccc(C(=C2CC3CCC(C2)N3Cc2ccoc2)c2ccc(CCC(=O)O)cc2)cc1 [Cpd 127]
Ki (MOR binding Ki): 0.00296 µM

CCNC(=O)c1ccc(C(=C2CC3CCC(C2)N3Cc2ccsc2)c2ccc([N+](=O)[O-])cc2)cc1 [Cpd 128]
Ki (MOR binding Ki): 0.00427 µM

CCNC(=O)c1ccc(C(=C2CC3CCC(C2)N3Cc2ccsc2)c2ccc(CCC(=O)O)cc2)cc1 [Cpd 129]
Ki (MOR binding Ki): 0.00673 µM

CCNC(=O)c1ccc(C(=C2CC3CCC(C2)N3Cc2nccs2)c2ccc([N+](=O)[O-])cc2)cc1 [Cpd 130]
Ki (MOR binding Ki): 0.221 µM

CCNC(=O)c1ccc(C(=C2CC3CCC(C2)N3Cc2nccs2)c2ccc(CC(N)C(=O)O)cc2)cc1 (stereo not shown) [Cpd 131]
Ki (MOR binding Ki): 0.152 µM

CCNC(=O)c1ccc(C(=C2CC3CCC(C2)N3Cc2nccs2)c2ccc(CCC(=O)O)cc2)cc1 [Cpd 132]
Ki (MOR binding Ki): 0.164 µM

CCNC(=O)c1ccc(C=C2CC3CCC(C2)N3Cc2nccs2)cc1 [Cpd 133]
Ki (MOR binding Ki): 0.581 µM

CCNC(=O)c1ccc(C(=C2CC3CCC(C2)N3CCc2ccccc2)c2ccc([N+](=O)[O-])cc2)cc1 [Cpd 134]
Ki (MOR binding Ki): 0.00757 µM

CCNC(=O)c1ccc(C(=C2CC3CCC(C2)N3CCc2ccccc2)c2ccc(CCC(=O)O)cc2)cc1 [Cpd 135]
Ki [1]: 0.318 µM
